What was measured:
[1] = biological target: T1, 6His-Tev-LRRK2 (1326-2527) (Homo sapiens, UniProt Q5S007); experiment: LRRK2 peptide substrate assay; assay type: biochemical; details: Biotin-LRRKtide peptide substrate, ATP at Km
T1 construct: A LRRK2 cDNA encoding residues 1326-2527 was received from Dundee University; made in house; host or cells: Spodoptera frugiperda (Sf9) insect cells, baculovirus
T1 sequence (Q5S007 1326-2527): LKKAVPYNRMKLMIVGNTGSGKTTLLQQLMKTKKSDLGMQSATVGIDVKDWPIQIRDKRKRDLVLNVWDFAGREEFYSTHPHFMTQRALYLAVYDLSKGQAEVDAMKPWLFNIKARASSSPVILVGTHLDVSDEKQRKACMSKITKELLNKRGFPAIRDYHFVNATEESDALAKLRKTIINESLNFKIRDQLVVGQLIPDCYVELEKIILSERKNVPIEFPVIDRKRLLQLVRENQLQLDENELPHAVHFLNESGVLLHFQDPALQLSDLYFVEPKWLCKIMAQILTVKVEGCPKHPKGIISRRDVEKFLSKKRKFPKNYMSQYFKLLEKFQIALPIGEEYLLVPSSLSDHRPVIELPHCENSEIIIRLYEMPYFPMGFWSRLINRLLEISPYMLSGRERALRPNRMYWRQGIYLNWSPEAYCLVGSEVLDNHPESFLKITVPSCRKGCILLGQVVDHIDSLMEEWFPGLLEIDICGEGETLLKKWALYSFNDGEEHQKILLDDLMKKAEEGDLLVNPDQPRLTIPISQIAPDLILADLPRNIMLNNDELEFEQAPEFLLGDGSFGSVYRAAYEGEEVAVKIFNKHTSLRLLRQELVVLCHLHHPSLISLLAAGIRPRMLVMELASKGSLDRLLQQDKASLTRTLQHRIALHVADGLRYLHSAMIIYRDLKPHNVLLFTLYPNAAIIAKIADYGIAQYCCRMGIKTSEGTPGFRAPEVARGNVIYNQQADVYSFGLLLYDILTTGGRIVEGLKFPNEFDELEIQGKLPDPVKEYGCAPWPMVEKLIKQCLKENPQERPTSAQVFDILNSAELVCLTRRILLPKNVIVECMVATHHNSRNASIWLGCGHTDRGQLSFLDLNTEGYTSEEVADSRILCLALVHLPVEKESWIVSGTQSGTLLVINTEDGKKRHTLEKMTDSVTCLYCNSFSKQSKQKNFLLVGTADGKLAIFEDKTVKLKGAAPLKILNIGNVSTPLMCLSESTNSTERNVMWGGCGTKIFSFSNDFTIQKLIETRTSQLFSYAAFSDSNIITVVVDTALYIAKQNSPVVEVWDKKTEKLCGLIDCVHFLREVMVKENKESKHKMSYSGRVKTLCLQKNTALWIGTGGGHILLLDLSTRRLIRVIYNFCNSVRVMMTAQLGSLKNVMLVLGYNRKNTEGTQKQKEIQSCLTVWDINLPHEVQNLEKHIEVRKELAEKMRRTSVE
Protocol: Compounds of formula (I) may be tested for in vitro kinase activity in accordance with the following assays, using the non natural, in vitro, substrates moesin and the Longer Biotin-LRRKtide. Moesin and a shorter version of the peptide were identified as substrates in Jaleel et al, (2007, Biochem J, 405: 307-317).
LRRK2 Peptide Substrate Assay
(§1) a) 100 nl of a 1:4 serial dilution of test compound with a top final assay concentration of 30 μM is added to certain wells in a low volume 384 well black plate. 100 nl of DMSO is used in certain wells as controls.
b) 3 μl enzyme solution (80 nM purified recombinant 6His-Tev-LRRK2 (1326-2527) in assay buffer: 50 mM Hepes (pH 7.2), 10 mM MgCl2, 150 mM NaCl, 5% glycerol, 0.0025% triton X-100 and 1 mM DTT) is added to certain wells. […] Plates are then incubated for a further 1-2 hours at room temperature (incubation time varies depending upon rate and linearity of reaction with differing enzyme batches). d) 6 μl detection solution (50 nM Streptavidin SureLight® APC (PerkinElmer), 4 nM Eu-W1024 labelled anti-rabbit IgG antibody (PerkinElmer), 1:500 dilution (dilution determined on a batch to batch basis) of Phospho-Ezrin (Thr567)/Radixin (Thr564)/Moesin (Thr558) Polyclonal Antibody (New England Biolabs) and 60 mM EDTA in buffer: 40 mM Hepes (pH 7.2), 150 mM NaCl, 0.03% BSA) is added to each well. Plates are then incubated for a further 2 hours at room temperature before reading on a suitable plate reader (Excitation 330 nm, emission 620 nm (Eu) and 665 nm (APC)). Data is analysed using ActivityBase software (IDBS). LRRK2 AlphaScreen Protein Substrate Assay

[2] = biological target: T1, 6His-Tev-LRRK2 (1326-2527); experiment: LRRK2 AlphaScreen desensitised protein substrate assay; assay type: biochemical
Protocol: as §1
b) 3 μl enzyme solution (80 nM purified recombinant 6His-Tev-LRRK2 (1326-2527) in assay buffer: 50 mM Hepes (pH 7.2), 10 mM MgCl2, 150 mM NaCl, 5% glycerol, 0.0025% triton X-100 and 1 mM DTT) is added to certain wells.
Plates are then incubated for a further 1-2 hours at room temperature (incubation time varies depending upon rate and linearity of reaction with differing enzyme batches).
d) 6 μl detection solution (1:250 dilution of AlphaLisa Protein A Acceptor beads (PerkinElmer), 1:64 dilution of AlphaLisa Gluthathione Donor beads (PerkinElmer) and 1:600 dilution (dilution determined on a batch to batch basis) of Phospho-Ezrin (Thr567)/Radixin (Thr564)/Moesin (Thr558) Polyclonal Antibody (New England Biolabs) in a buffer: 50 mM Hepes (pH 7.5), 250 mM NaCl, 60 mM EDTA, 1% PEG and 0.01% Brij 35) is added to each well. Plates are then incubated for a further 2 hours at room temperature in the dark before reading on an EnVision™ plate reader with AlphaScreen HTS turbo option module and AlphaScreen settings. Data is analysed using ActivityBase software (IDBS).
LRRK2 AlphaScreen Desensitised Protein Substrate Assay
This is conducted as described for the LRRK2 alphascreen protein substrate assay, with the following differences: • 1. The concentration of ATP in the substrate solution was 2 mM. • 2. The plates were incubated for 20 minutes at room temperature following addition of the substrate solution. Pharmacological Data

[3] = read-out: pIC50 in the LRRK2 peptide substrate assay (converted)
[4] = mean pIC50, read-out: LRRK2 peptide substrate assay (pIC50) (converted)
[5] = excess of ATP present (2 mM ATP), read-out: pIC50 in the LRRK2 alphascreen desensitised protein substrate assay (converted)
[6] = mean pIC50, GST-PS-Moesin (400-577) substrate, 2 mM ATP (excess of ATP present), read-out: LRRK2 alphascreen desensitised protein substrate assay (pIC50) (converted)

Row | SMILES | IC50 [1, 3] | IC50 [1, 4] | IC50 [2, 5] | IC50 [2, 6]
1 | O=C(Nc1cccnc1)c1cc(C(=O)N2CCOCC2)ccc1OCc1ccccc1 [Example 38, 5-(4-Morpholinylcarbonyl)-2-[(phenylmethyl)oxy]-N-3-pyridinylbenzamide] | ≤ 100 nM | 79.4 nM | ≤ 20 µM | 7.94 µM
2 | O=C(Nc1cccnc1)c1cc(OC[C@H]2CCCN2)ccc1OCc1ccccc1 [Example 44, 2-[(Phenylmethyl)oxy]-N-3-pyridinyl-5-{[(2R)-2-pyrrolidinylmethyl]oxy}benzamide] | ≤ 10 nM |  | ≤ 20 µM | 
3 | CN1CCC[C@@H]1COc1ccc(OCc2ccccc2)c(C(=O)Nc2cccnc2)c1 [Example 45, 5-({[(2R)-1-Methyl-2-pyrrolidinyl]methyl}oxy)-2-[(phenylmethyl)oxy]-N-3-pyridinylbenzamide] | ≤ 10 nM |  | ≤ 20 µM | 
4 | O=C(Nc1cccnc1)c1cc(OC[C@@H]2CCCN2)ccc1OCc1ccccc1 [Example 46, 2-[(Phenylmethyl)oxy]-N-3-pyridinyl-5-{[(2S)-2-pyrrolidinylmethyl]oxy}benzamide] | ≤ 100 nM |  | ≤ 20 µM | 
5 | CN1CCC[C@H]1COc1ccc(OCc2ccccc2)c(C(=O)Nc2cccnc2)c1 [Example 47, 5-({[(2S)-1-Methyl-2-pyrrolidinyl]methyl}oxy)-2-[(phenylmethyl)oxy]-N-3-pyridinylbenzamide] | ≤ 10 nM |  | ≤ 20 µM | 
6 | CNCCOc1ccc(OCc2ccccc2)c(C(=O)Nc2cccnc2)c1 [Example 48, 5-{[2-(Methylamino)ethyl]oxy}-2-[(phenylmethyl)oxy]-N-3-pyridinylbenzamide] | ≤ 100 nM |  | ≤ 20 µM | 
7 | NCCOCCOc1ccc(OCc2ccccc2)c(C(=O)Nc2cccnc2)c1 [Example 49, 5-({2-[(2-Aminoethyl)oxy]ethyl}oxy)-2-[(phenylmethyl)oxy]-N-3-pyridinylbenzamide] | ≤ 10 nM |  | ≤ 20 µM | 
8 | O=C(Nc1cn[nH]c1)c1cc(Br)ccc1OCc1ccccc1 [Example 51, 5-Bromo-2-[(phenylmethyl)oxy]-N-1H-pyrazol-4-ylbenzamide] | ≤ 100 nM |  | ≤ 20 µM | 
9 | O=C(Nc1cccnc1)c1cc(Br)ccc1OCc1cccc(F)c1 [Example 57, 5-Bromo-2-{[(3-fluorophenyl)methyl]oxy}-N-3-pyridinyl benzamide] | ≤ 100 nM |  | > 25.1 µM | 
10 | O=C(Nc1cccnc1)c1cc(Br)ccc1OCc1ccccc1F [Example 58, 5-Bromo-2-{[(2-fluorophenyl)methyl]oxy}-N-3-pyridinylbenzamide] | ≤ 10 nM |  | ≤ 20 µM | 
11 | Cc1nocc1NC(=O)c1cc(-c2ccncc2)ccc1OCc1ccccc1 [Example 61, N-(3-Methyl-4-isoxazolyl)-2-[(phenylmethyl)oxy]-5-(4-pyridinyl)benzamide] | ≤ 10 nM |  | ≤ 20 µM | 
12 | O=C(Nc1cnoc1)c1cc(-c2ccncc2)ccc1OCc1ccccc1 [Example 63, N-4-Isoxazolyl-2-[(phenylmethyl)oxy]-5-(4-pyridinyl)benzamide] | ≤ 100 nM |  | ≤ 20 µM | 
13 | O=C(Nc1cccnc1)c1cc(CN2CCOCC2)ccc1OCc1ccccc1 [Example 69, 5-(4-Morpholinylmethyl)-2-[(phenylmethyl)oxy]-N-3-pyridinylbenzamide] | ≤ 100 nM | 15.8 nM | ≤ 20 µM | 0.501 µM
14 | O=C(Nc1cccnc1)c1cc(CN2CCCC2)ccc1OCc1ccccc1 [Example 70, 2-[(Phenylmethyl)oxy]-N-3-pyridinyl-5-(1-pyrrolidinylmethyl)benzamide] | ≤ 100 nM |  | ≤ 20 µM | 
15 | CN(C)Cc1ccc(OCc2ccccc2)c(C(=O)Nc2cccnc2)c1 [Example 71, 5-[(Dimethylamino)methyl]-2-[(phenylmethyl)oxy]-N-3-pyridinylbenzamide] | ≤ 100 nM |  | ≤ 20 µM | 
16 | Cn1cc(-c2ccc(OCc3ccccc3)c(C(=O)Nc3ccnnc3)c2)cn1 [Example 73, 5-(1-Methyl-1H-pyrazol-4-yl)-2-[(phenylmethyl)oxy]-N-4-pyridazinylbenzamide] | ≤ 10 nM |  | ≤ 20 µM | 
17 | O=C(Nc1ccnnc1)c1cc(-c2ccncc2)ccc1OCc1ccccc1 [Example 74, 2-[(Phenylmethyl)oxy]-N-4-pyridazinyl-5-(4-pyridinyl)benzamide] | ≤ 10 nM |  | ≤ 20 µM | 
18 | CC(O)c1ccc(OCc2ccccc2)c(C(=O)Nc2cccnc2)c1 (stereo not drawn) [Example 75, 5-(1-Hydroxyethyl)-2-[(phenylmethyl)oxy]-N-3-pyridinylbenzamide] | ≤ 10 nM |  | ≤ 20 µM | 
19 | CC(C)(O)c1ccc(OCc2ccccc2)c(C(=O)Nc2cccnc2)c1 [Example 76, 5-(1-Hydroxy-1-methylethyl)-2-[(phenylmethyl)oxy]-N-3-pyridinylbenzamide] | ≤ 10 nM |  | ≤ 20 µM | 
20 | COC(=O)NCc1ccc(OCc2ccccc2)c(C(=O)Nc2cccnc2)c1 [Example 86, Methyl ({4-[(phenylmethyl)oxy]-3-[(3-pyridinylamino)carbonyl]phenyl}methyl)carbamate] | ≤ 10 nM |  | ≤ 20 µM | 
21 | CCOC(=O)CCc1ccc(OCc2ccccc2)c(C(=O)Nc2cccnc2)c1 [Example 87, Ethyl 3-{-4-[(phenylmethyl)oxy]-3-[(3-pyridinylamino)carbonyl]phenyl}propanoate] | ≤ 10 nM |  | ≤ 20 µM | 
22 | O=C(O)CCc1ccc(OCc2ccccc2)c(C(=O)Nc2cccnc2)c1 [Example 88, 3-{4-[(phenylmethyl)oxy]-3-[(3-pyridinylamino)carbonyl]phenyl}propanoic acid] | ≤ 100 nM |  | > 25.1 µM | 

— patent US8778939B2, “Compounds” (Glaxo Group Limited, priority 2009, dated 2014)
